In patent US20090281129A1, “CDKI PATHWAY INHIBITORS AND USES THEREOF” (Senex Biotechnology, Inc., priority 2006, published 2009):
“Also recorded” adds a separate entry of the source.

How the values were obtained:
Format in all cases: cell-based
[1] = tested on: HT1080 p21-9 cells co-cultured with C8 mouse fibroblast line; test: Paracrine antiapoptotic activity of p21-expressing HT1080 p21-9 cells, survival of C8 cells in low-serum media; conditions: p21 induction for three days in presence of compound; C8 survival after 3 days in 0.5% serum, luciferase assay
Source text: We have also tested if SNX2-class compounds can inhibit paracrine tumor-promoting activities of CDKI-expressing cells. In the assay shown in FIG. 12, HT1080 p21-9 cells were either untreated or treated with p21-inducing IPTG, alone or in the presence of three SNX2-class compounds (SNX2, SNX14 and SNX38). After three days, cells were trypsinized, washed to remove residual compounds, and 3×10^3 cell aliquots of each sample were mixed (in 6 replicates) with 10^4 cell aliquots of C8 mouse fibroblast line, which is highly susceptible to apoptosis in low-serum media. (To detect C8 cells in co-culture, we had transduced them with a vector expressing firefly luciferase.) The next day after plating the mixtures in 96-well plates (in 10% serum and in the absence of IPTG or compounds), cells were exposed to low-serum (0.5%) media, and the relative number of surviving C8 cells was measured after 3 days by the luciferase assay.

HT1080 p21-9 cells = test: FACS analysis of DNA content (cell cycle distribution) in HT1080 p21-9 cells; conditions: 18 hrs; for increase in the G1 fraction relative to cells treated with IPTG alone: 20 μM compound added simultaneously with 50 μM IPTG; for decrease in the G2 fraction of IPTG-treated cells: 20 μM compound with 50 μM IPTG; for increase in the G1 fraction: 20 μM compound, in the absence of IPTG
Protocol: We have analyzed the effect of SNX2-class compounds on cell cycle distribution of p21-arrested HT1080 p21-9 cells. Upon p21 induction, these cells are known to arrest both in G1 and in G2 (Chang et al., Oncogene 19, 2165-2170), which is illustrated in FIG. 9 by a reduction in the S-phase but not in the G1 or G2 fractions of cells treated with 50 μM IPTG for 18 hrs, relative to IPTG-untreated cells (as determined by FACS analysis of DNA content in DAPI-stained cells). 20 μM concentrations of SNX2 or SNX14 produce a small increase in the G1 fraction in the absence of IPTG (4% increase with SNX2 and 5% increase with SNX14) (FIG. 9). However, when SNX2 and SNX14 were added simultaneously with IPTG, they produced a much greater increase in the G1 fraction relative to cells treated with IPTG alone (19% increase with SNX2 and 22% increase with SNX14) (FIG. 9).

[2] = target: T1, NFκB (p50 or p65 subunits) (Homo sapiens, UniProt P19838+Q04206); test: TransAM NFκB p65 / p50 Chemi transcription factor assay (oligonucleotide binding); conditions: for TNFα-induced NFκB activity: TNFα-treated cells; for basal NFκB activity: control cells
T1 construct: endogenous in cells
T1 sequence (P19838 1-433 limits assumed): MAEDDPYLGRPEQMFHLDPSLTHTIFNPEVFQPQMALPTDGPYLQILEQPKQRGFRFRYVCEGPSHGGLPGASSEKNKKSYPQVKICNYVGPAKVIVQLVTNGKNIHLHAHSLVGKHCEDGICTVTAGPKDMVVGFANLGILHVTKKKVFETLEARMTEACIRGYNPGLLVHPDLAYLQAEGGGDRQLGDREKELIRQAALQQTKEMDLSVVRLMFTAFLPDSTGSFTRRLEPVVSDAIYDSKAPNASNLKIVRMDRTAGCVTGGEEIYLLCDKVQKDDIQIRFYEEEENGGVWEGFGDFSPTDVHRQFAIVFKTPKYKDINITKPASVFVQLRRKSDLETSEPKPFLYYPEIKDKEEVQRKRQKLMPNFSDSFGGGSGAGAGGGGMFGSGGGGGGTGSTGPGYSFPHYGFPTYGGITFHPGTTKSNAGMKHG
T1 sequence (Q04206 whole entry): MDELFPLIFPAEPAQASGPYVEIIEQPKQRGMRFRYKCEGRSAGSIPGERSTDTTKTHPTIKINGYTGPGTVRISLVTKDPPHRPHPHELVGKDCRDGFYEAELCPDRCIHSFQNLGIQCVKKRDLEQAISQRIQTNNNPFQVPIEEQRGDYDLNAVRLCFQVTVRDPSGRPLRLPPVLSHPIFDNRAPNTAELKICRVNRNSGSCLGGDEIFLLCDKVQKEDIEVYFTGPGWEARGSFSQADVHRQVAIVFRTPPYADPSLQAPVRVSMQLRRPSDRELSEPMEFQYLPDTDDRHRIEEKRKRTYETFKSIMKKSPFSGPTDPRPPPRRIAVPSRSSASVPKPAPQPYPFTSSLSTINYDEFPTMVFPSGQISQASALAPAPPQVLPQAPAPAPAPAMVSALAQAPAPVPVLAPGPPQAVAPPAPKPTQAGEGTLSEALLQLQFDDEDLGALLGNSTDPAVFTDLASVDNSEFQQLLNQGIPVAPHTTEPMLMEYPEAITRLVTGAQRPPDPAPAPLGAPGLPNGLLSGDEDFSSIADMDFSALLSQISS
Source text: The left set of bars represents cells treated with carrier control, the middle set represents cells treated with SNX2, and the right set represents cells treated with a known inhibitor of NFκB binding (TPCK).
We also tested if these compounds could act as the inhibitors of NFκB, by measuring cellular levels of p50 or p65 subunits binding oligonucleotides containing NFκB consensus binding site, using ACTIVE MOTIF TransAM™ NFκB p65 Chemi and NFκB p50 Chemi Transcription Factor Assay Kits.

[3] = tested on: normal human WI-38 fibroblasts; test: Doxorubicin-induced senescent phenotype (SA-β-gal) in WI-38 fibroblasts; conditions: senescence induced by 200 nM doxorubicin
Protocol: We have correlated the ability of SNX2-class compounds to inhibit the induction of CDKI-responsive genes with their effect on the senescent phenotype, induced in normal human WI-38 fibroblasts by treatment with 200 nM doxorubicin.

HT1080 p27-2 cells = test: FACS cell cycle analysis in HT1080 p27-2 cells with IPTG-inducible p27; conditions: 20 μM compound, 24-hour treatment
Protocol: IPTG induces dose-dependent increase in the G1 fraction with a corresponding decrease in S and G2/M. The doses of IPTG used in this experiment induce G1 arrest at levels that are lower than the maximal levels that are produced by 50-100 μM IPTG, where >80% of cells are in G1.

[4] = tested on: CDKI-responsive promoter of cellular NK4 gene; test: NK4-luciferase reporter in HT1080 p21-9 cells, prevention and reversal of p21-induced transcription; conditions: for induction of NK4-luciferase by p21 (reversal): compound added after two days of IPTG treatment; for induction of NK4-luciferase by p21: compound added simultaneously with IPTG
Protocol: The compounds show pronounced dose-dependent inhibition of transcription by p21, but they have only a marginal effect on the promoter function when p21 is not induced. […] In this experiment, HT1080 p21-9 cells that express firefly luciferase from a CDKI-responsive promoter of cellular NK4 gene were cultured with IPTG for two days, which is sufficient for near-maximal induction of NK4.

CCCNc1ncnc2ccc(Br)cc12 [SNX2]
p21-induced increase of C8 cell survival (paracrine antiapoptotic activity) [1]: significantly diminished | increase in the G1 fraction relative to cells treated with IPTG alone (HT1080 p21-9 cells): 19% | decrease in the G2 fraction of IPTG-treated cells (HT1080 p21-9 cells): 6% | increase in the G1 fraction (HT1080 p21-9 cells): 4% | TNFα-induced NFκB activity [2]: no significant effect | basal NFκB activity [2]: no significant effect | binding of NFκB proteins p50 or p65 to double-stranded DNA oligonucleotide comprising NFκB binding site ([2]; control or TNFα-treated cells): does not inhibit | expression of senescence marker SA-β-gal [3]: block this phenotype | morphological changes associated with cell senescence [3]: diminish

CC(C)Nc1ncnc2ccc(I)cc12 [SNX14]
p21-induced increase of C8 cell survival (paracrine antiapoptotic activity) [1]: significantly diminished; also recorded: strongest effect | increase in the G1 fraction relative to cells treated with IPTG alone (HT1080 p21-9 cells): 22% | decrease in the G2 fraction of IPTG-treated cells (HT1080 p21-9 cells): 7% | increase in the G1 fraction (HT1080 p21-9 cells): 5% | expression of senescence marker SA-β-gal [3]: block this phenotype | morphological changes associated with cell senescence [3]: diminish | effect on sub-maximal G1 arrest induced by IPTG (p27) (HT1080 p27-2 cells): strongly augmented

COCCCNc1ncnc2ccc(I)cc12 [SNX38]
p21-induced increase of C8 cell survival (paracrine antiapoptotic activity) [1]: significantly diminished | induction of NK4-luciferase by p21 (reversal) [4]: reverses; also recorded: strongly decreased | induction of NK4-luciferase by p21 [4]: prevents; also recorded: strongly decreased

Cc1c(Cl)cccc1NC(=O)CCN1CCN(Cc2ccccc2)CC1 [SNX63]
induction of NK4-luciferase by p21 (reversal) [4]: not two days later | induction of NK4-luciferase by p21 [4]: inhibited transcription

Cc1ccc(S(=O)(=O)N[C@@H](Cc2ccccc2)C(=O)CCl)cc1 [TPCK, reference compound]
TNFα-induced NFκB activity [2]: completely blocks | basal NFκB activity [2]: completely blocks
